We go through 27 compounds from patent publication US10336775B2 (Asceneuron SA, priority 2014, dated 2019).

A word on the IC50: it is the point on the concentration scale where inhibition reaches its midpoint.

Sequence of His-Tagged hOGA (human O-GlcNAcase) (O60502 whole entry): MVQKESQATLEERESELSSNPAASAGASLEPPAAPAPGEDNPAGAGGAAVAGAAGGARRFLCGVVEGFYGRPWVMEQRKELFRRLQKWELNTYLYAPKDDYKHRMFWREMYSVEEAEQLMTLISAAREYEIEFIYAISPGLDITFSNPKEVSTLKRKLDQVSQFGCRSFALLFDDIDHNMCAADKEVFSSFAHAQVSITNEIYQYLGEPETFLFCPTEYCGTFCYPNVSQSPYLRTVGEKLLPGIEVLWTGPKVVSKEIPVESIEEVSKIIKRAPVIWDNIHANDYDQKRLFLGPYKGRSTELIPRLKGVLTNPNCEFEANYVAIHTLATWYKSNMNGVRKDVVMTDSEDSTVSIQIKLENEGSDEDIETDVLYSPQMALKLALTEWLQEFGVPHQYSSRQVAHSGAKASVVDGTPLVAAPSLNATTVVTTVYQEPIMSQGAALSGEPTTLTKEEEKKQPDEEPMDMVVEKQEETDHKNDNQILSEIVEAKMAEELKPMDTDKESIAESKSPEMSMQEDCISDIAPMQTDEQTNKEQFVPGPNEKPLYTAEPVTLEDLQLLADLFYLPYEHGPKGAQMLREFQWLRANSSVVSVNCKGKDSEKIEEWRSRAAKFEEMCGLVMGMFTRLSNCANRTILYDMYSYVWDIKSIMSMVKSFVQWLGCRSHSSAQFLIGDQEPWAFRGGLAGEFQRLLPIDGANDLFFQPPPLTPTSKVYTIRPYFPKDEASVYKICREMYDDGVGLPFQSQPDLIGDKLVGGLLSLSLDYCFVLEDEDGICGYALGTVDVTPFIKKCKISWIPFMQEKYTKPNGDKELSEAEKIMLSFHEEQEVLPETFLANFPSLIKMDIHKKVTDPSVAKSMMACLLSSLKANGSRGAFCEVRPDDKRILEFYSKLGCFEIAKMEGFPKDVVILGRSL

One experiment concerns the target His-Tagged hOGA (human O-GlcNAcase) (Homo sapiens (Human), UniProt O60502). In words: Human O-GlcNAcase enzyme inhibition assay (Example B01). The class given is biochemical. Conditions: OGA IC50 (M), OGA enzyme inhibition assay; activity range classes defined in μM.
On to `CC(=O)Nc1cnc(N2CCN(C(C)c3ccc4cccnc4c3)CC2)nc1` (racemic) [Example 120, N-(2-(4-(1-(quinolin-7-yl)ethyl)piperazin-1-yl)pyrimidin-5-yl)acetamide], for which the IC50 fell in the range of 5e-08 to 2e-07 M.
On the same count and under the same terms, the result for `CC(c1ccc2nccnc2c1)N1CCN(c2nc3cnccc3s2)CC1` (racemic) [Example 140, 2-(4-(1-(quinoxalin-6-yl)ethyl)piperazin-1-yl)thiazolo[4,5-c]pyridine] reads 2e-07 to 1e-06 M; that for `Cc1csc(N2CCN(C(C)c3ccc4c(c3)OCO4)CC2)n1` (racemic) [Example 144, 1-[1-(1,3-benzodioxol-5-yl)ethyl]-4-(4-methyl-2-thiazolyl)-piperazine], 2e-07 to 1e-06 M.

The same experiment, now with this note: OGA enzyme inhibition assay; activity range classes defined in μM; read-out: OGA IC50.
As for `CNC(=O)c1cnc(N2CCN(C(C)c3ccc4c(c3)OCCO4)CC2)s1` (racemic) [Example 109, 2-(4-(1-(2,3-dihydrobenzo[b][1,4]dioxin-6-yl)ethyl)piperazin-1-yl)-N-methylthiazole-5-carboxamide], the IC50 is below 5e-08 M.
`CC(c1ccc2c(c1)OCO2)N1CCN(c2nnc(NC(=O)c3ccc(Cl)cc3)s2)CC1` (racemic) [Example 110, N-(5-(4-(1-(benzo[d][1,3]dioxol-5-yl)ethyl)piperazin-1-yl)-1,3,4-thiadiazol-2-yl)-4-chlorobenzamide]: the concentration for half-maximal inhibition (IC50) lay in the range of 5e-08 to 2e-07 M.
For the compound `CC(c1ccc2c(c1)OCO2)N1CCN(c2nnc(NCc3ccc(Cl)cc3)s2)CC1` (racemic) [Example 111, 5-(4-(1-(benzo[d][1,3]dioxol-5-yl)ethyl)piperazin-1-yl)-N-(4-chlorobenzyl)-1,3,4-thiadiazol-2-amine], the IC50 is 5e-08 to 2e-07 M.
Turning to `CCNc1nnc(N2CCN(C(C)c3ccc4c(c3)OCO4)CC2)s1` (racemic) [Example 112, 5-(4-(1-(benzo[d][1,3]dioxol-5-yl)ethyl)piperazin-1-yl)-N-ethyl-1,3,4-thiadiazol-2-amine], the IC50 is 5e-08 to 2e-07 M.
As for `CC(c1ccc2c(c1)OCO2)N1CCN(c2ncc3cc[nH]c3n2)CC1` (racemic) [Example 113, 2-(4-(1-(benzo[d][1,3]dioxol-5-yl)ethyl)piperazin-1-yl)-7H-pyrrolo[2,3-d]pyrimidine], the IC50 is 5e-08 to 2e-07 M.
As for `CC(=O)Nc1nnc(N2CCN(C(C)c3ccc4scnc4c3)CC2)s1` (racemic) [Example 114, N-(5-(4-(1-(benzo[d]thiazol-5-yl)ethyl)piperazin-1-yl)-1,3,4-thiadiazol-2-yl)acetamide], the IC50 is below 5e-08 M.
`CC(=O)Nc1nnc(N2CCN(C(C)c3ccc4cccnc4c3)CC2)s1` (racemic) [Example 115, N-(5-(4-(1-(quinolin-7-yl)ethyl)piperazin-1-yl)-1,3,4-thiadiazol-2-yl)acetamide]: the IC50 was in the range of 5e-08 to 2e-07 M.
Same read-out and setting: the result for `CC(=O)Nc1cnc(N2CCN(C(C)c3ccc4scnc4c3)CC2)nc1` (racemic) [Example 116, N-(2-(4-(1-(benzo[d]thiazol-5-yl)ethyl)piperazin-1-yl)pyrimidin-5-yl)acetamide] reads below 5e-08 M; that for `CC(=O)Nc1nnc(N2CCN(C(C)c3ccc4c(c3)OC(F)(F)O4)CC2)s1` (racemic) [Example 117], 2e-07 to 1e-06 M; that for `CC(=O)Nc1cnc(N2CCN(C(C)c3ccc4c(c3)OC(F)(F)O4)CC2)nc1` (racemic) [Example 118], 2e-07 to 1e-06 M.
On to `CC(c1ccc2c(c1)OCO2)N1CCN(c2ncc3ccccc3n2)CC1` (racemic) [Example 119, 2-(4-(1-(benzo[d][1,3]dioxol-5-yl)ethyl)piperazin-1-yl)quinazoline], for which the IC50 was in the range of 5e-08 to 2e-07 M.
In the case of `CC(=O)Nc1cnc(N2CCN(C(C)c3ccc4nonc4c3)CC2)nc1` (racemic) [Example 121, N-(2-(4-(1-(benzo[c][1,2,5]oxadiazol-5-yl)ethyl)piperazin-1-yl)pyrimidin-5-yl)acetamide], the IC50 was in the range of 1e-06 to 1e-05 M.
`CC(=O)Nc1cnc(N2CCN(C(C)c3ccc4nsnc4c3)CC2)nc1` (racemic) [Example 122, N-(2-(4-(1-(benzo[c][1,2,5]thiadiazol-5-yl)ethyl)piperazin-1-yl)pyrimidin-5-yl)acetamide]: the IC50 is below 5e-08 M.
Turning to `CC(=O)Nc1nnc(N2CCN(C(C)c3ccc4nsnc4c3)CC2)s1` (racemic) [Example 123, N-(5-(4-(1-(benzo[c][1,2,5]thiadiazol-5-yl)ethyl)piperazin-1-yl)-1,3,4-thiadiazol-2-yl)acetamide], the IC50 was below 5e-08 M.
For the compound `CC(=O)Nc1nnc(N2CCN(C(C)c3ccc4cc(Cl)cnc4c3)CC2)s1` (racemic) [Example 124], the IC50 is 1e-06 to 1e-05 M.
As for `CC(=O)Nc1cnc(N2CCN(C(C)c3ccc4cc(Cl)cnc4c3)CC2)nc1` (racemic) [Example 125, N-(2-(4-(1-(3-chloroquinolin-7-yl)ethyl)piperazin-1-yl)pyrimidin-5-yl)acetamide], the IC50 lay within 1e-06 to 1e-05 M.
Turning to `CC(=O)Nc1cnc(N2CCN(C(C)c3ccc4c(c3)OCCCO4)CC2)nc1` (racemic) [Example 126, N-(2-(4-(1-(3,4-dihydro-2H-benzo[b][1,4]dioxepin-7-yl)ethyl)piperazin-1-yl)pyrimidin-5-yl)acetamide], the IC50 lay within 2e-07 to 1e-06 M.
As for `CC(=O)Nc1cnc(N2CCN(C(C)c3cccc4cccnc34)CC2)nc1` (racemic) [Example 127, N-(2-(4-(1-(quinolin-8-yl)ethyl)piperazin-1-yl)pyrimidin-5-yl)acetamide], the IC50 lay within 1e-06 to 1e-05 M.
For the compound `CC(=O)Nc1nnc(N2CCN(C(C)c3ccc4c(c3)OCC4)CC2)s1` (racemic) [Example 128, N-(5-(4-(1-(2,3-dihydrobenzofuran-6-yl)ethyl)piperazin-1-yl)-1,3,4-thiadiazol-2-yl)acetamide], the IC50 is below 5e-08 M.
On to `CC(=O)Nc1cnc(N2CCN(C(C)c3ccc4c(c3)OCC4)CC2)nc1` (racemic) [Example 129, N-(2-(4-(1-(2,3-dihydrobenzofuran-6-yl)ethyl)piperazin-1-yl)pyrimidin-5-yl)acetamide], for which the IC50 is below 5e-08 M.
As for `CC(c1ccc2c(c1)OCO2)N1CCN(c2nc3ccccc3s2)CC1` (racemic) [Example 130, 2-(4-(1-(benzo[d][1,3]dioxol-5-yl)ethyl)piperazin-1-yl)benzo[d]thiazole], the IC50 lay within 2e-07 to 1e-06 M.
`CC(c1ccc2nccnc2c1)N1CCN(c2nc3ccccc3s2)CC1` (racemic) [Example 135, 2-(4-(1-(quinoxalin-6-yl)ethyl)piperazin-1-yl)benzo[d]thiazole]: the IC50 was 1e-06 to 1e-05 M.
Take `CC(c1ccc2c(c1)OCO2)N1CCN(c2nc3c(s2)C(=O)NCC3)CC1` (racemic) [Example 148, 2-(4-(1-(benzo[d][1,3]dioxol-5-yl)ethyl)piperazin-1-yl)-6,7-dihydrothiazolo[5,4-c]pyridin-4(5H)-one]: the IC50 fell in the range of 5e-08 to 2e-07 M.
On to `CC(c1ccc2nccnc2c1)N1CCN(c2ccc(C(F)(F)F)cn2)CC1` (racemic) [Example 165, 6-(1-(4-(5-(trifluoromethyl)pyridin-2-yl)piperazin-1-yl)ethyl)quinoxaline], for which the IC50 was in the range of 2e-07 to 1e-06 M.

The experiment is the same for the next values; noted with them: measured according to Example B01.
On to `CC(=O)Nc1nnc(N2CCN(C(C)c3ccc4scnc4c3)CC2)s1` (racemic) [Example 114, N-(5-(4-(1-(benzo[d]thiazol-5-yl)ethyl)piperazin-1-yl)-1,3,4-thiadiazol-2-yl)acetamide], for which the “OGA inhibitor activity (in words)” value was “very potent OGA inhibitors”.
Turning to `CC(=O)Nc1cnc(N2CCN(C(C)c3ccc4scnc4c3)CC2)nc1` (racemic) [Example 116, N-(2-(4-(1-(benzo[d]thiazol-5-yl)ethyl)piperazin-1-yl)pyrimidin-5-yl)acetamide], the “OGA inhibitor activity (in words)” value was “very potent OGA inhibitors”.
On to `CC(=O)Nc1nnc(N2CCN(C(C)c3ccc4c(c3)OCC4)CC2)s1` (racemic) [Example 128, N-(5-(4-(1-(2,3-dihydrobenzofuran-6-yl)ethyl)piperazin-1-yl)-1,3,4-thiadiazol-2-yl)acetamide], for which the “OGA inhibitor activity (in words)” value is on record as “very potent OGA inhibitors”.
Still for that read-out and setting: then `CC(=O)Nc1cnc(N2CCN(C(C)c3ccc4c(c3)OCC4)CC2)nc1` (racemic) [Example 129, N-(2-(4-(1-(2,3-dihydrobenzofuran-6-yl)ethyl)piperazin-1-yl)pyrimidin-5-yl)acetamide], with “very potent OGA inhibitors”.
